Test results: PubChem BioAssay AID1963967 (Molecular Pharmacology Branch, DTP, NCI, 2024)

Tested on: 855422-203-R-J1-PDC spheroids with HUVEC/MSC, viability
Assay: Anticancer human tumor 855422-203-R-J1-PDC patient-derived bladder carcinoma cell line growth inhibition [PI3K]
Details: for IC50: curve of first compound; for viability, T/C: stronger effect = lower value
In short: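 Spheroid viability read-out. Co-cultures contained the tumor line plus HUVEC and human MSCs. Each agent was paired with a PI3K inhibitor (inavolisib, alpelisib, duvelisib, copanlisib) across half-log dilutions starting at clinical Cmax, or at 10 microM when Cmax was unknown.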
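Note: agents incubated with spheroids for one week before read-out.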
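Throughout, for viability, T/C: 100% = DMSO vehicle-treated control wells.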

Compound: CC1(C)CCC(Nc2ncc(C(F)(F)F)c(-c3c[nH]c4c(P(C)(C)=O)c(C#N)ccc34)n2)CN1 (configuration not stated) + CC(Nc1ccc2c(c1)OCCn1cc(N3C(=O)OCC3C(F)F)nc1-2)C(N)=O
- IC50 (second compound 0.00316 µM): < 31.6 nM
- IC50 (second compound 0.01 µM): < 31.6 nM
- IC50 (second compound 0.0316 µM): < 31.6 nM
- IC50 (second compound 0.1 µM): < 31.6 nM
- IC50 (second compound 0.316 µM): < 31.6 nM
- IC50 (second compound 1 µM): < 31.6 nM
- viability, T/C (second compound 0.00316 µM, first compound 0.0316 µM): 23.7%
- viability, T/C (second compound 0.00316 µM, first compound 0.1 µM): 25%
- viability, T/C (second compound 0.00316 µM, first compound 0.316 µM): 27.9%
- viability, T/C (second compound 0.00316 µM, first compound 1 µM): 31.6%
- viability, T/C (second compound 0.00316 µM, first compound 3.16 µM): 31.4%
- viability, T/C (second compound 0.00316 µM, first compound 10 µM): 3.85%
- viability, T/C (second compound 0.01 µM, first compound 0.0316 µM): 20.4%
- viability, T/C (second compound 0.01 µM, first compound 0.1 µM): 21.3%
- viability, T/C (second compound 0.01 µM, first compound 0.316 µM): 26.2%
- viability, T/C (second compound 0.01 µM, first compound 1 µM): 25.8%
- viability, T/C (second compound 0.01 µM, first compound 3.16 µM): 29.1%
- viability, T/C (second compound 0.01 µM, first compound 10 µM): 3.78%
- viability, T/C (second compound 0.0316 µM, first compound 0.0316 µM): 20.2%
- viability, T/C (second compound 0.0316 µM, first compound 0.1 µM): 22.9%
- viability, T/C (second compound 0.0316 µM, first compound 0.316 µM): 22.2%
- viability, T/C (second compound 0.0316 µM, first compound 1 µM): 24.6%
- viability, T/C (second compound 0.0316 µM, first compound 3.16 µM): 24.1%
- viability, T/C (second compound 0.0316 µM, first compound 10 µM): 2.13%
- viability, T/C (second compound 0.1 µM, first compound 0.0316 µM): 20.2%
- viability, T/C (second compound 0.1 µM, first compound 0.1 µM): 19.4%
- viability, T/C (second compound 0.1 µM, first compound 0.316 µM): 20%
- viability, T/C (second compound 0.1 µM, first compound 1 µM): 23.2%
- viability, T/C (second compound 0.1 µM, first compound 3.16 µM): 21.5%
- viability, T/C (second compound 0.1 µM, first compound 10 µM): 3.77%
- viability, T/C (second compound 0.316 µM, first compound 0.0316 µM): 15.3%
- viability, T/C (second compound 0.316 µM, first compound 0.1 µM): 17.9%
- viability, T/C (second compound 0.316 µM, first compound 0.316 µM): 15.7%
- viability, T/C (second compound 0.316 µM, first compound 1 µM): 15.5%
- viability, T/C (second compound 0.316 µM, first compound 3.16 µM): 13.7%
- viability, T/C (second compound 0.316 µM, first compound 10 µM): 1.23%
- viability, T/C (second compound 1 µM, first compound 0.0316 µM): 14.4%
- viability, T/C (second compound 1 µM, first compound 0.1 µM): 14.2%
- viability, T/C (second compound 1 µM, first compound 0.316 µM): 13.1%
- viability, T/C (second compound 1 µM, first compound 1 µM): 12.6%
- viability, T/C (second compound 1 µM, first compound 3.16 µM): 11.4%
- viability, T/C (second compound 1 µM, first compound 10 µM): 0.83%
